According to ChEMBL document CHEMBL1150358, “Substituted benzyl-pyrimidines targeting thymidine monophosphate kinase of Mycobacterium tuberculosis: synthesis and in vitro anti-mycobacterial activity” (Bioorg Med Chem, 2008):
Values after ≈ are worked out from the molar mass of the structure shown. Active and inactive are the calls of the source. The rule behind the calls is not given here.

tested on: Mycobacterium tuberculosis; test: Antimicrobial activity against Mycobacterium bovis BCG 1173P2 after 8 days; type: functional; conditions: variant bovis BCG

| SMILES | Activity |
| --- | --- |
| NC(=O)CCCCCc1ccc(Cn2cc(Br)c(=O)[nH]c2=O)cc1 | inactive |
| Cc1cn([C@H]2C[C@H](O)[C@@H](CO)O2)c(=O)[nH]c1=O [DOXRIBTIMINE] | inactive |
| NC(=O)CCCCc1ccc(Cn2cc(Br)c(=O)[nH]c2=O)cc1 | inactive |
| CCCCCCc1ccc(Cn2cc(Cl)c(=O)[nH]c2=O)cc1 | inactive |
| Cc1cn(Cc2ccc(CCCCC(N)=O)cc2)c(=O)[nH]c1=O | inactive |
| CCCCc1ccc(Cn2cc(Cl)c(=O)[nH]c2=O)cc1 | inactive |
| Cc1cn(Cc2ccc(Br)cc2)c(=O)[nH]c1=O | inactive |
| CCCCc1ccc(Cn2cc(Br)c(=O)[nH]c2=O)cc1 | inactive |
| O=c1[nH]c(=O)n([C@H]2C[C@H](O)[C@@H](CO)O2)cc1Br [BROXURIDINE] | inactive |
| CCCCCCc1ccc(Cn2cc(Br)c(=O)[nH]c2=O)cc1 | inactive |

same assay, conditions: variant bovis BCG, 192 h

| SMILES | MIC50 |
| --- | --- |
| Cc1cn(Cc2ccc(CCCCC(=O)O)cc2)c(=O)[nH]c1=O | 120 µg/mL (≈ 379 µM) |
| NC(=O)CCCc1ccc(Cn2cc(Cl)c(=O)[nH]c2=O)cc1 | 51 µg/mL (≈ 159 µM) |
| O=C(O)CCCCCc1ccc(Cn2cc(Br)c(=O)[nH]c2=O)cc1 | 80 µg/mL (≈ 202 µM) |
| O=C(O)CCCCc1ccc(Cn2cc(Br)c(=O)[nH]c2=O)cc1 | 100 µg/mL (≈ 262 µM) |
| NC(=O)CCCCCc1ccc(Cn2cc(Cl)c(=O)[nH]c2=O)cc1 | 288 µg/mL (≈ 823 µM) |
| O=C(O)CCCc1ccc(Cn2cc(Cl)c(=O)[nH]c2=O)cc1 | 45 µg/mL (≈ 139 µM) |
| NC(=O)CCCc1ccc(Cn2cc(Br)c(=O)[nH]c2=O)cc1 | 55 µg/mL (≈ 150 µM) |
| O=C(O)CCCc1ccc(Cn2ccc(=O)[nH]c2=O)cc1 | 225 µg/mL (≈ 780 µM) |
| Cc1cn(Cc2ccc(CCCCCC(=O)O)cc2)c(=O)[nH]c1=O | 195 µg/mL (≈ 590 µM) |
| O=C(O)CCCCc1ccc(Cn2cc(Cl)c(=O)[nH]c2=O)cc1 | 120 µg/mL (≈ 356 µM) |
| Cc1cn(Cc2ccc(C#CCCCC(=O)O)cc2)c(=O)[nH]c1=O | 150 µg/mL (≈ 460 µM) |
| COC(=O)CCCc1ccc(Cn2cc(Br)c(=O)[nH]c2=O)cc1 | 180 µg/mL (≈ 472 µM) |
| O=C(O)CCCCCc1ccc(Cn2cc(Cl)c(=O)[nH]c2=O)cc1 | 125 µg/mL (≈ 356 µM) |
| Cc1cn(Cc2ccc(CCCCCC(N)=O)cc2)c(=O)[nH]c1=O | 230 µg/mL (≈ 698 µM) |
| COC(=O)CCCc1ccc(Cn2cc(Cl)c(=O)[nH]c2=O)cc1 | 260 µg/mL (≈ 772 µM) |
| NC(=O)CCCc1ccc(Cn2ccc(=O)[nH]c2=O)cc1 | 270 µg/mL (≈ 940 µM) |
| Cc1cn(Cc2ccc(CCCCO)cc2)c(=O)[nH]c1=O | 365 µg/mL (≈ 1270 µM) |
| O=C(O)CCCc1ccc(Cn2cc(Br)c(=O)[nH]c2=O)cc1 | 50 µg/mL (≈ 136 µM) |
